# In PMC8070164 (Biomolecules, 2021):
# pEC50: −log10 of the molar value.
# Experiments:
# ASIC3 [1] = conditions: ref [16],[17]; cited from earlier work
# Description: (§1) Indeed, several neuropeptides modulate ASICs by directly binding to these ionotropic receptors. For example, dynorphin opioid neuropeptides bind to the acidic pocket of ASIC1a and shift steady-state desensitization curves to higher proton concentrations. RFamide neuropeptides bind to the central vestibule of ASIC3 [14] and delay its desensitization.
# rat ASIC1a [2] = assay: Whole cell patch-clamp in transfected CHO cells (ASIC1a activation); assay type: cell-based
# Method: Chinese hamster ovary (CHO) cells were maintained in Ham’s Nutrient Mixture F12 (Sigma, St. Louis, MI, USA) together with 10% fetal bovine serum (FBS; Sigma, St. Louis, MI, USA) and passaged regularly. Cells were seeded and transfected after 1 day with 1 µg rat ASIC1a cDNA in pCDNA3.1 and 1 µg GFP using X-treme GENE (Sigma, St. Louis, MI, USA). Cells were patched 48 h after transfection.
# We performed whole cell patch-clamp measurements on cultured CHO cells, using patch pipettes of 4–6 MΩ resistance filled with (in mM) 10 NaCl, 121 KCl, 2 MgCl2, 5 EGTA, 10 HEPES, pH 7.25. The bath solution contained (in mM) 128 NaCl, 5.4 KCl, 1 MgCl2, 2 CaCl2, 10 HEPES, pH 7.4 with NaOH. Osmolarity was adjusted with glucose to 280 mOsmol/L for the pipette solution and to 290 mOsmol/L for the extracellular solution. Data were acquired using an Axon Digidata 1440A and an Axon Axopatch 200B and recorded and analyzed using the pClamp Software (Axon Instruments, Molecular Devices, Sunnyvale, San Jose, CA, USA).
# (§2) Rat nocistatin ([…]) has been purchased from ProteoGenix (Schiltigheim, France) with a guaranteed purity of >95%. It was delivered as a lyophilized powder. For measurements with oocytes, it was dissolved in standard bath solution (pH 7.4) to obtain a concentration of 1 mM. This solution was further diluted to 0.5 mM; for one half of this solution, the pH was adjusted to pH 7.4, for the other half it was not adjusted. For measurements with CHO cells, the peptide was dissolved in bath solution to obtain a concentration of 0.25 mM; the pH was adjusted to 7.4. The solutions were freshly prepared before use.
# (A) current trace of a CHO cell transfected with rASIC1a cDNA stimulated with pH 6.0 (black bar) or with rNS (0.25 mM, pH 7.4, green bar) for 10 s. Conditioning pH 7.4. This trace is representative for 6 similar measurements. (B) as in A, ASIC1a-expressing CHO cell was stimulated repetitively with pH 6.0 for 10 s (black bars). rNS (0.25 mM, pH 7.4, green bar) was applied for 10 s prior to pH 6.0 stimulation. This trace is representative for 3 similar measurements.
# [3] = pH of bath solution after dissolving nocistatin; assay type: physicochemical; conditions: standard bath solution, 10 mM HEPES, initial pH 7.4, standard pH meter
# Method: as §2
# We dissolved nocistatin in bath solution containing 10 mM HEPES with a pH of 7.4 (see Methods); this is the same buffer at the same concentration that was previously used in the study reporting activation of ASICs by nocistatin [18]. Nocistatin dissolved readily, but, as expected for a highly acidic peptide with a pI of 3.7, the pH of the solution dropped to pH values between 6.7 and 4.15 when we dissolved nocistatin to obtain a final concentration between 0.25 and 1 mM (Table 1). We titrated nocistatin-containing solutions using NaOH until we reached again neutral pH of 7.4. For comparison, we also tested a solution containing 0.5 mM nocistatin without adjustment of the pH value.
# ASIC1a = conditions: ref [18], cited from earlier work
# Description: as §1, with “desensitization. […] Strikingly, it was reported that the apparent nocistatin affi ...” for “desensitization.”
# ASIC3 [4] = conditions: cited from earlier work
# Method: as §1, with “desensitization. […] But ASIC2a has a low proton sensitivity with an EC50 of ~4.0 [21, 22]. Because 1 mM noci ...” for “desensitization.”
# ASIC1b = conditions: cited from earlier work
# Method: as §1, with “desensitization. […] But ASIC2a has a low proton sensitivity with an EC50 of ~4.0 [21, 22]. Because 1 mM noci ...” for “desensitization.”
# ASIC2a = conditions: ref [18], cited from earlier work
# Method: as §1, with “desensitization. […] But ASIC2a has a low proton sensitivity with an EC50 of ~4.0 [21, 22]. Because 1 mM noci ...” for “desensitization.”
# rat ASIC1a [5] = assay: Two electrode voltage-clamp in Xenopus oocytes (ASIC1a activation); assay type: cell-based
# Method: ASIC1a cRNA synthesis and preparation of oocytes was described previously. Briefly, oocytes were removed from anesthetized frogs; frogs were killed after final oocyte collection by decapitation. Animal care and surgery of frogs were conducted under protocols approved by the State Office for Nature, Environment, and Consumer Protection (LANUV) of North Rhine-Westphalia (NRW), Germany, and were performed in accordance with LANUV NRW guidelines. ASIC1a cRNA (0.016 ng) was injected into stage V or VI oocytes. Oocytes were kept in OR-2 medium (in mM, 82 NaCl, 2.5 KCl, 1 Na2HPO4, 4-(2-hydroxyethyl)-1-piperazineethanesulfonic acid (HEPES), 1.0 MgCl2, 1 CaCl2, and 0.5 mg/mL polyvinylpyrrolidone) at 19 °C. Two electrode voltage-clamp measurements were performed as described previously. Whole cell currents were recorded 24–48 h post injection at room temperature (20–25 °C) with a TurboTec 03X amplifier (npi Electronic, Tamm, Germany). Fast solution exchange was performed by a programmable pipetting robot (screening tool; npi Electronic). Data acquisition was controlled using CellWorks 5.1.1 (npi Electronic). Data were filtered at 20 Hz and acquired at 1 kHz. Holding potential was −70 mV. Standard bath solution for two electrode voltage-clamp measurements contained (in mM) 140 NaCl, 1.8 CaCl2, 1 MgCl2, and 10 HEPES.
# as §2
# Similar to the previous study, we expressed rat ASIC1a in Xenopus laevis oocytes and performed two electrode voltage-clamp to study activation of ASIC1a by nocistatin.
# Current trace recorded from a rASIC1a-expressing oocyte stimulated repetitively with pH 6.0 for 20 s (black bars); conditioning pH 7.4 was applied for 60 s. Rat nocistatin (rNS, 0.5 mM) in pH-unadjusted (pH 5.1, red bar) und pH-adjusted (pH 7.4, green bar) conditioning solution was applied for 20 s.
# [6] = system: FMRFamide-activated Na^+ channel (FaNaC); conditions: cited from earlier work
# Method: For example, some DEG/ENaCs from invertebrates are directly gated by neuropeptides. The FMRFamide-activated Na^+ channel (FaNaC) from the snail Helix is activated by the neuropeptide FMRFamide with an EC50 of ~2 μM [9], Hydra Na^+ channels (HyNaCs) are activated by Hydra-RFamides with an EC50 of 0.05–10 μM [10], and the myoinhibitory peptide-gated ion channel (MGIC) from the annelid Platynereis is activated by myoinhibitory peptides with an EC50 of 1–5 μM [11]. Therefore, neuropeptides are attractive candidates also for ASIC agonists. Of note, these peptide-gated ion channels desensitize ...
# [7] = 1 mM nocistatin vs pH 5.5, ref [18]
substance,measurement,setting,value
endomorphin-2,effect on ASIC3 desensitization,ASIC3 [1],slow desensitization of ASIC3
"MPRVRSVVQARDAEPEADAEPVADEADEVEQKQLQ [nocistatin, endogenous neuropeptide with 35 amino acids; rat nocistatin purchased from ProteoGenix, purity >95%]",ASIC1a current on pH 6.0 application following nocistatin,"rat ASIC1a [2]; 0.25 mM nocistatin pH 7.4 for 10 s, then pH 6.0 for 10 s, representative for 3 measurements",induced canonical ASIC1a currents
same,current elicited by nocistatin at neutral pH,"rat ASIC1a [2]; 0.25 mM, pH 7.4, 10 s, conditioning pH 7.4, representative for 6 measurements",elicited no current
same,direct activation of ASIC1a (summary),"rat ASIC1a [2]; CHO cells, text says up to 500 μM nocistatin",did not directly activate ASIC1a
same,measured pH value after dissolving nocistatin,[3]; 0.25 mM nocistatin,6.7
same,measured pH value after dissolving nocistatin,[3]; 0.5 mM nocistatin,5.1
same,measured pH value after dissolving nocistatin,[3]; 1.0 mM nocistatin,4.15
same,direct agonism,ASIC1a; ASIC1a,direct agonist
same,desensitization kinetics of nocistatin-induced currents,ASIC1a; compared with proton-induced currents,virtually identical to the kinetics of proton-induced currents
same,pEC50,ASIC1a; read-out: EC50 (affinity of nocistatin for ASIC1a),~3.60
same,"current amplitude, 1 mM nocistatin compared with pH 5.5",ASIC3 [4]; [7],similar
same,activation by 1 mM nocistatin,"ASIC3 [4]; 1 mM, ref [18]",activated
same,direct agonism,ASIC3 [4]; ref [18],direct agonist
same,"current amplitude, 1 mM nocistatin compared with pH 5.5",ASIC1b; [7],similar
same,activation by 1 mM nocistatin,"ASIC1b; 1 mM, ref [18]",activated
same,direct agonism,ASIC1b; ref [18],direct agonist
same,"current amplitude, 1 mM nocistatin compared with acidification from 7.4 to 5.5","ASIC2a; 1 mM nocistatin vs acidification from 7.4 to 5.5, ASIC2a",eight times larger current amplitudes
same,activation by 1 mM nocistatin,"ASIC2a; 1 mM, ASIC2a",activated
same,direct agonism,ASIC2a; ASIC2,direct agonist
same,ASIC1a current on pH 6.0 application immediately after nocistatin at pH 5.1 (desensitization),"rat ASIC1a [5]; 0.5 mM nocistatin pH 5.1, then pH 6.0, holding potential −70 mV, representative for 5 measurements","did not elicit currents, indicating that ASIC1a was completely desensitized"
same,ASIC current on pH 6.0 application immediately after nocistatin at pH 7.4 (desensitization),"rat ASIC1a [5]; 0.5 mM nocistatin pH 7.4, then pH 6.0, holding potential −70 mV, representative for 5 measurements",elicited ASIC currents with a full amplitude
same,"ASIC1a current elicited by nocistatin, pH not adjusted","rat ASIC1a [5]; 0.5 mM, pH 5.1, 20 s, conditioning pH 7.4, holding potential −70 mV, representative for 5 measurements",elicited ASIC1a currents with an amplitude and kinetics similar to the currents elicited by pH 6.0
same,"ASIC1a current elicited by nocistatin, pH adjusted","rat ASIC1a [5]; 0.5 mM, pH adjusted to 7.4, 20 s, holding potential −70 mV, representative for 5 measurements",elicited no ASIC1a currents
same,direct activation of ASIC1a (summary),"rat ASIC1a [5]; up to 500 μM nocistatin, Xenopus oocytes",did not directly activate ASIC1a
endomorphin-1,effect on ASIC3 desensitization,ASIC3 [1],slow desensitization of ASIC3
FMRFamide,desensitization time constant,"[6]; desensitize only partially and slowly, ref [9],[10],[11]",> 10 s
same,pEC50,[6]; ref [9],~5.70
